{"source": "paper PMC9604868", "about": "“Evaluation of Possible Antioxidant, Anti-Hyperglycaemic, Anti-Alzheimer and Anti-Inflammatory Effects of Teucrium polium Aerial Parts (Lamiaceae)” (Life, 2022)", "key": {"[1]": {"test": "DPPH radical scavenging assay", "settings": "means ± SD (n = 3)", "protocol": "(§1) The antioxidant activity of T. polium L. hydroalcoholic extract was achieved using several analytical tests distinguished by their mechanism of reaction 2-diphenyl-1-picrylhydrazyl (DPPH), β-carotene and galvinoxyl radical (GOR). The reaction was initiated by mixing 0.5 mL of hydroalcoholic extract with 1 mL of DPPH (0.2 mM), β-carotene (0.5 mM) and GOR (0.1 mM) using the protocols described in references. The mixtures were left in the dark at room temperature for approximately 30 min; after that, the absorbance was measured at λmax: […], 490 and 428 nm for the mentioned tests, respectively, against a blank using a UV-vis spectrophotometer apparatus (Shimadzu UV-2450, Japan). The inhibition percentage was calculated as follows: I% = ((A0 − A1)/A0) × 100, where A0 is the absorbance of DPPH, β-carotene and GOR solutions without extracts, while A1 were the absorbance of the sample. The activity results for all tests were expressed as IC50 (half maximal inhibitory concentration) values, which have been calculated (using Microsoft Excel 2016) from an antiradical linear graph formed by the X axis, which represented extract concentration, and the Y axis, which represented their relative inhibition percentage. In addition, the antioxidant activity results were compared with three standards, BHA, BHT and vitamin, as represented in Table 1."}, "β-carotene assay": {"test": "β-carotene assay", "settings": "means ± SD (n = 3)", "protocol": "as §1"}, "[2]": {"system": "carrageenan-induced paw edema", "test": "Carrageenan-induced hind paw edema", "settings": "mice, gavage, extract 10% 0.5 mL or diclofenac 10 mg/kg; for % Oedema Reduction: versus control"}, "rat renal medulla COX": {"system": "rat renal medulla COX", "set-up": "method as in PMID 33802084", "settings": "cited from earlier work"}}, "data": [{"smiles": "COc1ccc(O)c(C(C)(C)C)c1", "note": "[BHA, butylated hydroxyanisole]", "values": [{"measurement": "DPPH IC50", "setting": "[1]", "result": "6.14 ± 0.41", "unit": "µg/mL"}, {"measurement": "β Carotene IC50", "setting": "β-carotene assay", "result": "1.05 ± 0.03", "unit": "µg/mL"}]}, {"smiles": "Cc1cc(C(C)(C)C)c(O)c(C(C)(C)C)c1", "note": "[BHT, 2,6-ditert-butyl-4-methylphenol]", "values": [{"measurement": "DPPH IC50", "setting": "[1]", "result": "12.99 ± 0.41", "unit": "µg/mL"}, {"measurement": "β Carotene IC50", "setting": "β-carotene assay", "result": "0.91 ± 0.01", "unit": "µg/mL"}]}, {"smiles": "O=C(O)Cc1ccccc1Nc1c(Cl)cccc1Cl", "note": "[Diclofenac sodium]", "values": [{"measurement": "% Oedema", "setting": "[2]; 4 h after carrageenan", "result": 20.42, "unit": "%"}, {"measurement": "Average Paw Weight (g) Left", "setting": "[2]; carrageenan-injected paw, 4 h", "result": "0.171 ± 0.009", "unit": "g"}, {"measurement": "Average Paw Weight (g) Right", "setting": "[2]; uninjected paw, 4 h", "result": "0.142 ± 0.001", "unit": "g"}, {"measurement": "% Oedema Reduction", "setting": "[2]; 4 h after carrageenan", "result": 52.97, "unit": "%"}, {"measurement": "% Oedema Reduction", "setting": "[2]; 4 h after carrageenan, listed as diclofenac sodium", "result": 52.97, "unit": "%"}]}, {"smiles": "O=c1cc(-c2ccc(O)c(O)c2)oc2cc(O)cc(O)c12", "note": "[Luteolin (7), luteolin]", "values": [{"measurement": "IC50", "setting": "rat renal medulla COX", "result": "100 to 130", "unit": "µM"}]}, {"smiles": "Cc1c(C)c2c(c(C)c1O)CC[C@@](C)(CCC[C@H](C)CCC[C@H](C)CCCC(C)C)O2", "note": "[Vitamin E, α-Tocopherol]", "values": [{"measurement": "DPPH IC50", "setting": "[1]", "result": "15.81 ± 0.54", "unit": "µg/mL"}]}]}
